Experimental data: US6794397B2, “Substituted nicotinamides and analogs as activators of caspases and inducers of apoptosis and the use thereof” (Cytovia, Inc., priority 2000, dated 2004)
Like-named read-outs stand apart in the source and are kept apart here.

Columns and labels:
[1] = tested on: ZR75-1; assay: Caspase cascade activation assay (N-(Ac-DEVD)-N'-ethoxycarbonyl-R110 fluorogenic substrate) in ZR75-1 cells; format: cell-based, Human; conditions: for EC50 (nM) caspase potency / EC50: sigmoidal dose-response; for Caspase activity Ratio: ratio of net RFU of test compound to control, 0.16 to 10 μM final; for EC50: read-out: EC50 (nM) caspase potency
Method: (§1) Human breast cancer cell lines T47D and ZR75-1 were grown according to media component mixtures designated by American Type Culture Collection +10% FCS (Invitrogen Corporation, Life Technologies Division), in a 5% CO2 −95% humidity incubator at 37° C. T47D and ZR75-1 cells were maintained at a cell density between 30 and 80% confluency at a cell density of 0.1 to 0.6×10^6 cells/ml. Cells were harvested at 600xg and resuspended at 0.65×10^6 cells/ml into appropriate media +10% FCS. An aliquot of 45 μl of cells was added to a well of a 96-well microtiter plate containing 5 μl of a 10% DMSO in RPMI-1640 media solution containing 1.6 to 100 μM of N-(4-methoxy-2-nitrophenyl)-3-pyridinecarboxamide or other test compound (0.16 to 10 μM final). An aliquot of 45 μl of cells was added to a well of a 96-well microtiter plate containing 5 μl of a 10% DMSO in RPMI-1640 media solution without test compound as the control sample. The samples were mixed by agitation and then incubated at 37 C. for 24 h in a 5% CO2 −95% humidity incubator. After incubation, the samples were removed from the incubator and 50 μl of a solution containing 20 μM of N-(Ac-DEVD)-N′-ethoxycarbonyl-R110 (SEQ ID NO: 1) fluorogenic substrate (Cytovia, Inc.; WO99/18856), 20% sucrose (Sigma), 20 mM DTT (Sigma), 200 mM NaCl (Sigma), 40 mM Na PIPES buffer pH 7.2 (Sigma), and 500 μg/ml lysolecithin (Calbiochem) was added. The samples were mixed by agitation and incubated at room temperature. Using a fluorescent plate reader (Model 1420 Wallac Instruments), an initial reading (T=0) was made approximately 1-2 min after addition of the substrate solution, employing excitation at 485 nm and emission at 530 nm, to determine the background fluorescence of the control sample. After the 3 h incubation, the samples were read for fluorescence as above (T=3 h).
(§2) The Relative Fluorescence Unit values (RFU) were used to calculate the sample readings as follows:
(§3) RFU(T=3h)−Control RFU(T=0)=Net RFU(T=3h).
(§4) The activity of caspase cascade activation was determined by the ratio of the net RFU value for N-(4-methoxy-2-nitrophenyl)-3-pyridinecarboxamide or other test compound to that of control samples. The EC50 (nM) was determined by a sigmoidal dose-response calculation (Prism 2.0, GraphPad Software Inc.).

[2] = tested on: T47D; assay: Caspase cascade activation assay (N-(Ac-DEVD)-N'-ethoxycarbonyl-R110 fluorogenic substrate) in T47D cells; format: cell-based, Human; conditions: 24 h incubation; for EC50 (nM) caspase potency / EC50: sigmoidal dose-response; for Caspase activity Ratio: ratio of net RFU of test compound to control, 0.16 to 10 μM final; for EC50: read-out: EC50 (nM) caspase potency
Method: as §1, §2, §3, §4

[3] = Homo sapiens, ZR-75-1, 24 h incubation

Compound	EC50 (nM) caspase potency ([1]; 24 h incubation)	Caspase activity Ratio ([1]; 24 h incubation)	EC50 (nM) caspase potency [2]	Caspase activity Ratio [2]	EC50 [1, 3]	EC50 ([1]; 24 h incubation)	EC50 [2]	EC50 ([2]; Homo sapiens)
O=C(Nc1ccc([N+](=O)[O-])cc1[N+](=O)[O-])c1ccc(Cl)nc1 [Example 17, 6-Chloro-N-(2,4-dinitrophenyl)-3-pyridinecarboxamide]	Inactive	Inactive	Inactive	Inactive				
O=C(Nc1ccc(F)cc1[N+](=O)[O-])c1ccc(Cl)nc1 [Example 3, 6-Chloro-N-(4-fluoro-2-nitrophenyl)-3-pyridinecarboxamide]		2.1	Inactive	Inactive	4620 nM			
COc1ccc(NC(=O)c2ccc(Cl)nc2)c(C)c1 [Example 20, 6-Chloro-N-(4-methoxy-2-methylphenyl)-3-pyridinecarboxamide]	Inactive	Inactive	Inactive	Inactive				
4-Chloro-N-(4-ethoxy-2-nitrophenyl)-benzoylamide [Example 18]		5.1		3.0		3840 nM	6750 nM	
N#Cc1ccc(NC(=O)c2ccc(Cl)nc2)c([N+](=O)[O-])c1 [Example 21, 6-Chloro-N-(4-cyano-2-nitrophenyl)-3-pyridinecarboxamide]		2.3	Inactive	Inactive	4670 nM			
O=C(Nc1cc(F)c(F)cc1[N+](=O)[O-])c1ccc(Cl)nc1 [Example 19, 6-Chloro-N-(4,5-difluoro-2-nitrophenyl)-3-pyridinecarboxamide]		3.8		2.7	6880 nM			3550 nM
CCOc1ccc(NC(=O)c2ccc(F)nc2)c([N+](=O)[O-])c1 [Example 22, 6-Fluoro-N-(4-ethoxy-2-nitrophenyl)-3-pyridinecarboxamide]		6.6		7.6	295 nM			466 nM
O=C(Nc1ccccc1[N+](=O)[O-])c1ccc(Cl)nc1 [Example 10, 6-Chloro-N-(2-nitrophenyl)-3-pyridinecarboxamide]	Inactive	Inactive	Inactive	Inactive				
COc1ccc(NC(=O)c2ccc(Cl)nc2)cc1 [Example 11, 6-Chloro-N-(4-methoxyphenyl)-3-pyridinecarboxamide]	Inactive	Inactive	Inactive	Inactive				
O=C(Nc1ccc(C(F)(F)F)cc1[N+](=O)[O-])c1ccc(Cl)nc1 [Example 1, 6-Chloro-N-(2-nitro-4-trifluoromethylphenyl)-3-pyridinecarboxamide]		3.6		8.9	729 nM			2970 nM
O=C(Nc1ccc(Cl)cc1[N+](=O)[O-])c1ccc(Cl)nc1 [Example 2, 6-Chloro-N-(4-chloro-2-nitrophenyl)-3-pyridinecarboxamide]		5.8		7.8	329 nM			587 nM
Cc1cc(NC(=O)c2ccc(Cl)nc2)c([N+](=O)[O-])cc1C [Example 27, 6-Chloro-N-(4,5-dimethyl-2-nitrophenyl)-3-pyridinecarboxamide]	Inactive	Inactive	Inactive	Inactive				
COc1ccc(NC(=O)c2ccncc2)c([N+](=O)[O-])c1 [Example 14, N-(4-methoxy-2-nitrophenyl)-4-pyridinecarboxamide]	Inactive	Inactive	Inactive	Inactive				
